Measured values taken from patent US6166290A, “Glutathione-S-conjugate transport in plants” (The Trustees of the University of Pennsylvania, priority 1997, dated 2000).
Where “and” joins values, the source holds several entries; their conditions need not be identical. Equal values may be shown once. Read-outs that look alike come from different tables or passages of the source.

Experiments:
[1] = molecular target: T1, YCF1 (vacuolar membrane vesicles purified from DTY165 cells) (Saccharomyces cerevisiae, UniProt P39109); test: biochemical; format: biochemical; conditions: for 109Cd.GS2 uptake as percentage of control: 10 min; for 109Cd uptake of Mono-Q fraction: 5 μM gramicidin-D
T1 construct: endogenous in cells; host or cells: S. cerevisiae DTY165 (wild type YCF1), vacuolar membrane vesicles
Description: (§1) In experiments involving cadmium transport, dithiothreitol and EGTA were removed from the suspension medium to prevent the attenuation of YCF1-dependent Cd^2+ transport otherwise exerted by these compounds. Vesiculated vacuolar membranes were subjected to three cycles of 50-fold dilution into simplified suspension medium (1.1 M glycerol, 5 mM Tris-Mes, pH 8.0), centrifugation at 100,000× g for 35 minutes and resuspension in the same medium before use.
(§2) Singly radiolabeled ^109 Cd.GSn and doubly radio-labeled ^109 Cd[^3 H].GS^n complexes were prepared by sequential gel-filtrationand anion-exchange chromatography of the reaction products generated by incubating 20 mM ^109 CdSO4 (78.4 mCi/mmol) with 40 mM GSH or 40 mM [^3 H]GSH (240 mCi/mmol) in 15 ml 10 mM phosphate buffer (pH 8.0) containing 150 mM KNO3 at 45° C. for 24 hours. For gel-filtration, 2 ml aliquots of the reaction mixture were applied to a column (40×1.5 cm ID) packed with water-equilibrated Sephadex G-1 5, eluted with deionized water and ^109 Cd and/or ^3 H in the fractions was measured by liquid scintillation counting. The fractions encompassed by each of the two ^109 Cd.GSn peaks identified were pooled, lyophilized and redissolved in 4 ml of loading buffer (5 mM Tris-Mes, pH 8.0). For anion-exchange chromatography, 0.5 ml aliquots of the resuspended lyophilizates from gel-filtration chromatography were applied to a Mono-Q HR5/5 column (Pharmacia) equilibrated with the same buffer. Elution was with a linear gradient of NaCl (0.5 ml/minute; 0-500 mM) dissolved in loading buffer. The individual fractions corresponding to the major peaks of ^109 Cd obtained from the Mono-Q column (one each for the peaks resolved by gel-filtration chromatography) were pooled, lyophilized and resuspended in 4 ml deionized water after liquid scintillation counting.
(§3) MgATP-energized, uncoupler-insensitive ^109 Cd^2+ uptake by vacuolar membrane vesicles was measured at 25° C. in 200 μl reaction volumes containing 3 mM ATP, 3 mM MgSO4, 5 μM gramicidin-D, 10 mM creatine phosphate, 16 units/ml creatine kinase, 50 mM KCl, 400 mM sorbitol, 25 mM Tris-Mes (pH 8.0) and the indicated concentrations of ^109 CdSO4, GSH or ^109 Cd- and/or ^3 H-labeled purified Cd.GSn complexes as described herein except that the wash media contained 100 μM CdSO4 in addition to sorbitol (400 mM) and Tris-Mes (3 mM, pH 8.0).

[2] = molecular target: T1, YCF1 (vacuolar membrane vesicles purified from DTY165 cells); test: [3H]DNP-GS uptake by vacuolar membrane vesicles purified from DTY165 cells; format: biochemical
Description: (§4) For the routine preparation of vacuolar membrane vesicles, 15 ml of stationary phase cultures of DTY165 or DTY167 were diluted into 1-liter volumes of fresh YPD medium, grown for 24 hours at 30° C. to an OD600 nm of approximately 0.8 and collected by centrifugation. After washing with distilled water, the cells were converted to spheroplasts with Zymolyase 20T (ICN) (Kim et al., 1994, supra) and intact vacuoles were isolated by flotation centrifugation of spheroplast lysates on Ficoll 400 step gradients as described by Roberts et al. (1991, Methods. Enzymol. 194:644-661). Both the spheroplast lysis buffer and Ficoll gradients contained 2 mg/ml bovine serum albumin, 1 μg/ml aprotinin, 1 μg/ml leupeptin, 1 μg/ml pepstatin, and 1 mM PMSF to minimize proteolysis. The resulting vacuole fraction was vesiculated in 5 mM MgCl2, 25 mM KCl, 10 mM Tris-Mes (pH 6.9) containing 2 mg/ml bovine serum albumin, 1 μg/ml aprotinin, 1 μg/ml leupeptin, 1 μg/ml pepstatin, and 1 mM PMSF, pelleted by centrifugation at 37,000× g for 25 min, and resuspended in suspension medium (1.1 M glycerol, 2 mM dithiothreitol, 1 mM Tris-EGTA, 2 mg/ml bovine serum albumin, 1 μg/ml aprotinin, 1 μg/ml leupeptin, 1 μg/ml pepstatin, 1 mM PMSF, 5 mM Tris-Mes, pH 7.6) (Kim et al., 1995, J. Biol. Chem. 270:2630-2635).
(§5) Unless otherwise indicated, [^3 H]DNP-GS uptake was measured at 25° C. in 200 μl reaction volumes containing 3 mM ATP, 3 mM MgSO4, 5 μM gramicidin-D, 10 mM creatine phosphate, 16 units/ml creatine kinase, 50 mM KC 1, 1 mg/ml bovine serum albumin, 400 mM sorbitol, 25 mM Tris-Mes (pH 8.0), and 66.2 μM [^3 H]DNP-GS (8.7 mCi/mmol) (Li et al., 1995, supra). […] Uptake was initiated by the addition of vacuolar membrane vesicles (10-15 μg of membrane protein), brief mixing of the samples on a vortex mixer and uptake was then allowed to proceed for 1-60 minutes. Uptake was terminated by the addition of 1 ml of ice-cold wash medium (400 mM sorbitol, 3 mM Tris-Mes, pH 8.0) and vacuum filtration of the suspension through prewetted Millipore HA cellulose nitrate membrane filters (pore diameter, 0.45 μm). The filters were rinsed twice with 1 ml of ice-cold wash medium and air-dried, and radioactivity was determined by liquid scintillation counting in BCS mixture (Amersham Corp.). Nonenergized [^3 H]DNP-GS uptake and extravesicular solution trapped on the filters were enumerated by the same procedure except that ATP and Mg^2 +were omitted from the uptake medium.

[3] = system: vacuolar membrane vesicles purified from DTY167 cells (ycf1Δ mutant); format: biochemical, Saccharomyces cerevisiae
Description: as §4, §5

[4] = system: vacuolar membrane vesicles purified from DTY167 cells (ycf1Δ mutant); format: biochemical, Saccharomyces cerevisiae; conditions: for 109Cd.GS2 uptake as percentage of control: 10 min; for 109Cd uptake of Mono-Q fraction: 5 μM gramicidin-D
Description: as §1, §2, §3

[5] = 5 μM gramicidin D, GSH, GSSG 1 mM, GS-conjugates 100 μM
[6] = 5 μM gramicidin D, GSH, GSSG 1 mM, GS-conjugates 100 μM, 10 min
[7] = 66.2 μM DNP-GS, 3 mM MgATP (omitted with MgAMP-PNP), MgAMP-PNP 3 mM, bafilomycin A1 0.5 μM, FCCP 5 μM, gramicidin D 5 μM, NH4Cl 1 mM
[8] = as Table 1 concentrations, 10 min
[9] = 50 μM 109Cd.GS2, bafilomycin A1 0.5 μM, FCCP 5 μM, gramicidin-D 5 μM, NH4Cl 1 mM
[10] = 50 μM (as Cd), pretreated 1:4 with 2-ME, 60° C., 10 minutes
[11] = 5 μM gramicidin D, read-out: I50 for MgATP-dependent, uncoupler-insensitive DNP-GS uptake

T1 sequence (P39109 whole entry): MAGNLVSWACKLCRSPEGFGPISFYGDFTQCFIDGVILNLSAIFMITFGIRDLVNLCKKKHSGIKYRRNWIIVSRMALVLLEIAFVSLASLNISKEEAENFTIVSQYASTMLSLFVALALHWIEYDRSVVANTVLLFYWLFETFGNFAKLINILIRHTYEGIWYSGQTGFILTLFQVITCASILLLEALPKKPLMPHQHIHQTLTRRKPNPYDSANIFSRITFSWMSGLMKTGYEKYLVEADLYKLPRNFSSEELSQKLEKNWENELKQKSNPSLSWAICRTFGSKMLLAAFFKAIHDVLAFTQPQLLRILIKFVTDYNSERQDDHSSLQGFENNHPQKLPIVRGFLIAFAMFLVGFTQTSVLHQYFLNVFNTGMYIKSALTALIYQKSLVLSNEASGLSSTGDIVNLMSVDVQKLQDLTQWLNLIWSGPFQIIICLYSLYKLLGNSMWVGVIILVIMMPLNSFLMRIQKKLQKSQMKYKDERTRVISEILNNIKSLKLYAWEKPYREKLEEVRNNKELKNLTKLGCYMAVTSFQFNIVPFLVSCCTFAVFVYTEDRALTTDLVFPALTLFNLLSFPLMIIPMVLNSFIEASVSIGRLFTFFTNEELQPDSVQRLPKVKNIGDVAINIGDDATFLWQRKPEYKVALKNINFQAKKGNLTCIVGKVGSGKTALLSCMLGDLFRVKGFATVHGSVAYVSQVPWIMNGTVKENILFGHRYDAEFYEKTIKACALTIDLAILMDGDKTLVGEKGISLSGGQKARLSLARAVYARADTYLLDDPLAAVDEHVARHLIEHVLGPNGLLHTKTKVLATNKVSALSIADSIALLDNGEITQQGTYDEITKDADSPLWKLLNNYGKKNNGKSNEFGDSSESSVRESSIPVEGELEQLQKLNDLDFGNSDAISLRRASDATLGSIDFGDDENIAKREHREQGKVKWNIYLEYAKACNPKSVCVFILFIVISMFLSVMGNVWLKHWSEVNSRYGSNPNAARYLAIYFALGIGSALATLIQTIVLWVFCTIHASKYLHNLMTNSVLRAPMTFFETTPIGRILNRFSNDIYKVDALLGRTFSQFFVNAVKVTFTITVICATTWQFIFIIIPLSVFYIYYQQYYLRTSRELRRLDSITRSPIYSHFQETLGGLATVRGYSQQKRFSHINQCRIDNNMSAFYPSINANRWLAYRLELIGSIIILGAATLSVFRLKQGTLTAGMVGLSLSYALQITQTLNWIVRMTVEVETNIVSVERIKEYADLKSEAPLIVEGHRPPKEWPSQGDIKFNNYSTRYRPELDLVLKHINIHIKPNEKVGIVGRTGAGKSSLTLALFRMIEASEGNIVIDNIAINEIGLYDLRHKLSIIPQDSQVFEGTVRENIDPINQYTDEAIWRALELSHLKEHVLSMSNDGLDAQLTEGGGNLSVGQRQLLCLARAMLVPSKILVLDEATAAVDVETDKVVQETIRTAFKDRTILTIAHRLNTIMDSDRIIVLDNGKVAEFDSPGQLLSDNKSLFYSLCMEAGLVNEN

OCCS [2-mercaptoethanol]
inhibition of Cd2+ uptake by pretreatment of HMW-Cd.GS ([1]; pretreatment with 2-mercaptoethanol): > 80%

[N-]=[N+]=Nc1ccc(C(=O)CSC[C@H](NC(=O)CC[C@H](N)C(=O)O)C(=O)NCC(=O)O)cc1 [Azidophenacyl-GS]
MgATP-dependent, uncoupler-insensitive DNP-GS uptake plus compound [2, 5]: 16.0 ± 1.4 nmol/mg/10 minutes
MgATP-dependent, uncoupler-insensitive DNP-GS uptake as percentage of control [2, 6]: 33.5%
inhibition of DNP-GS uptake ([2]; 100 μM compound): about 50%
MgATP-dependent, uncoupler-insensitive DNP-GS uptake plus compound [3, 5]: 5.2 ± 0.3 nmol/mg/10 minutes
MgATP-dependent, uncoupler-insensitive DNP-GS uptake as percentage of control [3, 6]: 80.0%

CO/C1=C\C(C)=C\[C@@H](C)[C@@H](O)[C@@H](C)C/C(C)=C/C=C/[C@H](OC)[C@@H]([C@@H](C)[C@@H](O)[C@H](C)[C@@]2(O)C[C@@H](O)[C@H](C)[C@@H](C(C)C)O2)OC1=O [Bafilomycin A1]
DNP-GS uptake plus the compound indicated [2, 7]: 43.2 ± 1.0 nmol/mg/10 minutes
DNP-GS uptake as percentage of control plus the compound indicated [2, 8]: 55.6%
DNP-GS uptake plus the compound indicated [3, 7]: 4.3 ± 0.3 nmol/mg/10 minutes
DNP-GS uptake as percentage of control plus the compound indicated [3, 8]: 27.9%
109Cd.GS2 uptake plus addition [1, 9]: 81.8 ± 6.0 nmol/mg/10 minutes
109Cd.GS2 uptake as percentage of control ([1]; as Table 7 concentrations): 76.6%
decrease of MgATP-dependent Cd.GS2 uptake ([1]; text to Table 7): 22%
109Cd.GS2 uptake plus addition [4, 9]: 12.8 ± 3.6 nmol/mg/10 minutes
109Cd.GS2 uptake as percentage of control ([4]; as Table 7 concentrations): 74.0%

N#CC(C#N)=NNc1ccc(OC(F)(F)F)cc1 [FCCP]
DNP-GS uptake plus the compound indicated [2]: 47.4 ± 1.7 nmol/mg/10 minutes
DNP-GS uptake as percentage of control plus the compound indicated ([2]; dty165 vacuolar membrane vesicles, 10 min): 61.0
DNP-GS uptake plus the compound indicated [3]: 6.4 ± 0.3 nmol/mg/10 minutes
DNP-GS uptake as percentage of control plus the compound indicated ([3]; dty167 vacuolar membrane vesicles, 10 min): 41.8
109Cd.GS2 uptake plus addition [1]: 62.2 ± 11.4 nmol/mg/10 minutes
decrease of MgATP-dependent Cd.GS2 uptake ([1]; vacuolar membrane vesicles): 22%
109Cd.GS2 uptake as percentage of control ([1]; vacuolar membrane vesicles): 58.8
109Cd.GS2 uptake plus addition [4]: 10.2 ± 1.6 nmol/mg/10 minutes
109Cd.GS2 uptake as percentage of control ([4]; vacuolar membrane vesicles): 59.0

N[C@@H](CCC(=O)N[C@@H](C[S][Cd][S]C[C@H](NC(=O)CC[C@H](N)C(=O)O)C(=O)NCC(=O)O)C(=O)NCC(=O)O)C(=O)O [HMW-Cd.GS, bis(glutathionato)cadmium]
Vmax for MgATP-dependent, uncoupler-insensitive Cd.GS2 uptake [1]: 157.2±60.7 nmol/mg/10 minutes
109Cd.GS2 uptake, control ([1]; 50 μM 109Cd.GS2, no addition): 105.8 ± 12.4 nmol/mg/10 minutes
109Cd uptake of Mono-Q fraction ([1]; 50 μM (as Cd)): 66.3 ± 2.7 nmol/mg/10 min
109Cd uptake after 2-ME pretreatment [1, 10]: 11.9 ± 2.4 nmol/mg/10 min
Vmax for MgATP-dependent, uncoupler-insensitive Cd.GS2 uptake ([1]; listed as Cd.GS2): 157.2±30.4 nmol/mg/10 minutes
Km ([1]; read-out: Km for MgATP-dependent, uncoupler-insensitive Cd.GS2 uptake): 39.1 ± 14.1 µM
109Cd.GS2 uptake, control ([4]; 50 μM 109Cd.GS2, no addition): 17.3 ± 2.7 nmol/mg/10 minutes
109Cd uptake of Mono-Q fraction ([4]; 50 μM (as Cd)): 5.6 ± 2.6 nmol/mg/10 min
109Cd uptake after 2-ME pretreatment [4, 10]: 4.4 ± 3.0 nmol/mg/10 min

Nc1ncnc2c1ncn2[C@@H]1O[C@H](COP(=O)(O)OP(=O)(O)NP(=O)(O)O)[C@@H](O)[C@H]1O [MgAMP-PNP]
DNP-GS uptake plus the compound indicated [2, 7]: 2.5 ± 0.5 nmol/mg/10 minutes
DNP-GS uptake as percentage of control plus the compound indicated [2, 8]: 3.2%
DNP-GS uptake plus the compound indicated [3, 7]: 1.4 ± 0.3 nmol/mg/10 minutes
DNP-GS uptake as percentage of control plus the compound indicated [3, 8]: 9.1%

Cl.N [NH4 Cl, Ammonium chloride]
DNP-GS uptake plus the compound indicated [2, 7]: 69.1 ± 2.9 nmol/mg/10 minutes
DNP-GS uptake as percentage of control plus the compound indicated [2, 8]: 88.9%
DNP-GS uptake plus the compound indicated [3, 7]: 14.9 ± 0.7 nmol/mg/10 minutes
DNP-GS uptake as percentage of control plus the compound indicated [3, 8]: 96.8%
109Cd.GS2 uptake plus addition [1, 9]: 89.8 ± 8.2 nmol/mg/10 minutes
109Cd.GS2 uptake as percentage of control ([1]; as Table 7 concentrations): 84.8%
decrease of MgATP-dependent Cd.GS2 uptake ([1]; text to Table 7): 15%
109Cd.GS2 uptake plus addition [4, 9]: 10.0 ± 1.7 nmol/mg/10 minutes
109Cd.GS2 uptake as percentage of control ([4]; as Table 7 concentrations): 57.8%

CC[C@]1(O)C[C@@H]2CN(CCc3c([nH]c4ccccc34)[C@@](C(=O)OC)(c3cc4c(cc3OC)N(C)[C@H]3[C@@](O)(C(=O)OC)[C@H](OC(C)=O)[C@]5(CC)C=CCN6CC[C@]43[C@@H]65)C2)C1 [Vinblastine]
IC50 [2, 11]: 89 µM and 88.8 µM
IC50 [3, 11]: > 500 µM

MgATP
Vmax(MgATP) of uncoupler-insensitive DNP-GS uptake ([2]; 66.2 μM DNP-GS, 5 μM gramicidin D): 38.4±5.6 nmol/mg/10 minutes
DNP-GS uptake as percentage of control, MgATP omitted ([2]; --MgATP, 66.2 μM DNP-GS): 2.8%
DNP-GS uptake, MgATP omitted ([2]; --MgATP, 66.2 μM DNP-GS): 2.2 ± 0.4 nmol/mg/10 minutes
Km ([2]; read-out: Km(MgATP) of uncoupler-insensitive DNP-GS uptake, 66.2 μM DNP-GS, 5 μM gramicidin D, 10 minutes): 86.5 ± 29.5 µM
DNP-GS uptake as percentage of control, MgATP omitted ([3]; --MgATP, 66.2 μM DNP-GS): 9.7%
DNP-GS uptake, MgATP omitted ([3]; --MgATP, 66.2 μM DNP-GS): 1.5 ± 0.6 nmol/mg/10 minutes

mono(glutathionato)cadmium [LMW-Cd.GS]
109Cd uptake of Mono-Q fraction ([1]; 50 μM (as Cd)): 4.4 ± 0.8 nmol/mg/10 min
uptake of LMW-109Cd.GS ([1]; all of the concentrations examined): negligible
109Cd uptake of Mono-Q fraction ([4]; 50 μM (as Cd)): 3.9 nmol/mg/10 min
